Columns and labels:
PTPRS (PTP-sigma) = PTPRS (PTP-sigma) (Homo sapiens, UniProt Q13332); assay: Phosphatase profiling, pNPP substrate; type: biochemical; conditions: 30 μM, triplicate; negative = inhibition
Protocol: (§1) Assays were performed to profile compound CSDDD2320 against 21 phosphatase targets at 1 concentration (30 μM) in triplicate measurements. The aim was to identify whether the compound can affect the activity of the various phosphatase targets selected.
(§2) Protein Phosphatase Assay: The DUSP22, PTPN2 (TC-PTP), PTPN7 (LC-PTP), PTPRA (LRP), PTPRC (CD45), PTPRE, PTPRS, PTPN1(PTP1B) and PTPN13(FAP-1) phosphatase activity was determined by performing assays at 37° C. for 15 minutes in a final volume of 100 μl according to the following assay reaction recipe:
(§3) Component 1. 5 μl of diluted active protein phosphatase
(§4) Component 2. 50 μl of 1.5 mM pNPP substrate assay solution
(§5) Component 3. 25 μl of phosphatase assay buffer
(§6) Component 4. 20 μl of compound (150 μM) or 10% DMSO
(§7) The assay was started by incubating the reaction mixture at 37° C. for 15 minutes. After the 15 minute incubation period, the assay was terminated by the addition of 25 μl of 2N NaOH stopping solution. The absorbance of the reaction solution was measured in a spectrophotometer at 405 nm. Blank control was set up that included all the assay components except the addition of the pNPP substrate (replaced with equal volume of phosphatase assay buffer). The corrected activity for various phosphatase targets was determined by removing the blank control value.

PTPN1 (PTP1B) = PTPN1 (PTP1B) (Homo sapiens, UniProt P18031); assay: Phosphatase profiling, pNPP substrate; type: biochemical; conditions: 30 μM, triplicate; negative = inhibition
Protocol: as §1, §2, §3, §4, §5, §6, §7

PTPN13 (FAP-1) = PTPN13 (FAP-1) (Homo sapiens, UniProt Q12923); assay: Phosphatase profiling, pNPP substrate; type: biochemical; conditions: 30 μM, triplicate; positive = activation
Protocol: as §1, §2, §3, §4, §5, §6, §7

PTPN7 (LC-PTP) = PTPN7 (LC-PTP) (Homo sapiens, UniProt P35236); assay: Phosphatase profiling, pNPP substrate; type: biochemical; conditions: 30 μM, triplicate; positive = activation
Protocol: as §1, §2, §3, §4, §5, §6, §7

PTPRA (LRP) = PTPRA (LRP) (Homo sapiens, UniProt P18433); assay: Phosphatase profiling, pNPP substrate; type: biochemical; conditions: 30 μM, triplicate; positive = activation
Protocol: as §1, §2, §3, §4, §5, §6, §7

PTPN2 (TC-PTP) = PTPN2 (TC-PTP) (Homo sapiens, UniProt P17706); assay: Phosphatase profiling, pNPP substrate; type: biochemical; conditions: 30 μM, triplicate; positive = activation
Protocol: as §1, §2, §3, §4, §5, §6, §7

PTPRC (CD45) = PTPRC (CD45) (Homo sapiens, UniProt P08575); assay: Phosphatase profiling, pNPP substrate; type: biochemical; conditions: 30 μM, triplicate; negative = inhibition; listed as CSDDD2320
Protocol: as §1, §2, §3, §4, §5, §6, §7

PTPRE = PTPRE (Homo sapiens, UniProt P23469); assay: Phosphatase profiling, pNPP substrate; type: biochemical; conditions: 30 μM, triplicate; negative = inhibition; listed as CSDDD2320
Protocol: as §1, §2, §3, §4, §5, §6, §7

DUSP22 (MKPX) = DUSP22 (MKPX) (Homo sapiens, UniProt Q9NRW4); assay: Phosphatase profiling, pNPP substrate; type: biochemical; conditions: 30 μM, triplicate; negative = inhibition; listed as CSDDD2320
Protocol: as §1, §2, §3, §4, §5, §6, §7

full-length DUSP5 = target: T1, full-length DUSP5 (Homo sapiens, UniProt Q16690); assay: ERK dephosphorylation assay, full-length DUSP5 with pERK2 substrate, western blot; type: biochemical
T1 construct: an assay was development using ERK2 and full-length DUSP5
T1 sequence (Q16690 1-384): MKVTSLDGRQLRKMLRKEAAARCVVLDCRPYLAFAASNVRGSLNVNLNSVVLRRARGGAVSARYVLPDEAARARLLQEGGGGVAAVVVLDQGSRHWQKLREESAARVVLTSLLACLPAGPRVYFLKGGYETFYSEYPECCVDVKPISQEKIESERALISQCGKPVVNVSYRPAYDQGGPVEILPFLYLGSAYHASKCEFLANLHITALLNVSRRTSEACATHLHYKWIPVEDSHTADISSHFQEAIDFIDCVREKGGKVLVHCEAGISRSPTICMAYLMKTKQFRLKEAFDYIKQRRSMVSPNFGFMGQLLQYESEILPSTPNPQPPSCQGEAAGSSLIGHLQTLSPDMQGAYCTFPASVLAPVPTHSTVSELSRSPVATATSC
Protocol: ERK Dephosphorylation Assay.
For this assay, 10 ng of GST-tagged recombinant phosphorylated ERK2 (R&D Systems, 1230-KS) was incubated with and without the indicated DUSP5 proteins (0.5 nM final concentration) for 15 min at room temperature, with or without the indicated drugs. The reactions were halted with 2× Laemmli sample buffer and subjected to SDS-PAGE. The proteins were transferred to polyvinylidene difluoride (PVDF) and immunoblotted using antibodies to pERK (Cell Signaling Tech., #9106) and Total ERK (Cell Signaling Tech., #9102). Bound antibodies were visualized using horseradish peroxidase-linked anti-mouse IgG (Cell Signaling Tech, #7076S) and anti-rabbit IgG (Cell Signaling Tech, #7074S), respectively, and ECL reagents (Pierce, 34708) according to the manufacturer's protocol. IC50s were calculated using GraphPad Prism 6 software.
And, the native substrate for DUSP5 is the pERK2 protein, which is much larger and capable of a more complicated range of inter-molecular interactions that the pNPP substrate (which is intended only to mimic the phospho-tyrosine of pERK). […] To this end, an assay was development using ERK2 and full-length DUSP5, monitoring pERK levels in a western blot, as a function of pERK2 substrate concentration. […] This surprising increase in potency for CSD3-2320 (but not NTS) with full length DUSP5 underscores the importance of performing secondary assays with biologically relevant forms of enzyme and substrate.

mutant DUSP5 = mutant DUSP5 (Homo sapiens, UniProt Q16690, S147P); assay: Restoration of mutant DUSP5 function
[1] = test system: pERK levels in HUVEC cells; assay: pERK levels in HUVEC cells, western blot; type: cell-based, Human; conditions: HUVECs incubated 2 hours, pERK relative to total ERK; Na3VO4 at 200 μM
Protocol: Cell Culture and Western Blots.
Human Umbilical Vein Endothelial Cells (HUVECs) were maintained in EBM2 media (Lonza, CC-3156) supplemented with a combined serum and growth factor kit (Lonza, CC-4176). Cells were incubated with the indicated concentrations of drug for 2 h and lysed with RIPA buffer (Sigma, R0278) on ice. Cell lysates were cleared by centrifugation at 16,300×g for 30 min. The resulting supernatants were isolated and protein concentration determined by Lowry assay (DC protein assay, BioRad). 2× laemmli sample buffer was added to equal amounts of protein and separated by SDS-PAGE. The protein gels were transferred to polyvinylidene difluoride (PVDF) and immunoblotted using antibodies to phosphorylated ERK (Cell Signaling, #9106) and total ERK (Cell Signaling, #9102). Bound antibodies were visualized using horseradish peroxidase-linked anti-rabbit IgG, anti-mouse IgG (Cell Signaling Tech., #7074 and #7076) and ECL reagents (Thermo Scientific, 34080) according to the manufacturer's protocol.

PTPRE, sequence (P23469 20-700, species assumed): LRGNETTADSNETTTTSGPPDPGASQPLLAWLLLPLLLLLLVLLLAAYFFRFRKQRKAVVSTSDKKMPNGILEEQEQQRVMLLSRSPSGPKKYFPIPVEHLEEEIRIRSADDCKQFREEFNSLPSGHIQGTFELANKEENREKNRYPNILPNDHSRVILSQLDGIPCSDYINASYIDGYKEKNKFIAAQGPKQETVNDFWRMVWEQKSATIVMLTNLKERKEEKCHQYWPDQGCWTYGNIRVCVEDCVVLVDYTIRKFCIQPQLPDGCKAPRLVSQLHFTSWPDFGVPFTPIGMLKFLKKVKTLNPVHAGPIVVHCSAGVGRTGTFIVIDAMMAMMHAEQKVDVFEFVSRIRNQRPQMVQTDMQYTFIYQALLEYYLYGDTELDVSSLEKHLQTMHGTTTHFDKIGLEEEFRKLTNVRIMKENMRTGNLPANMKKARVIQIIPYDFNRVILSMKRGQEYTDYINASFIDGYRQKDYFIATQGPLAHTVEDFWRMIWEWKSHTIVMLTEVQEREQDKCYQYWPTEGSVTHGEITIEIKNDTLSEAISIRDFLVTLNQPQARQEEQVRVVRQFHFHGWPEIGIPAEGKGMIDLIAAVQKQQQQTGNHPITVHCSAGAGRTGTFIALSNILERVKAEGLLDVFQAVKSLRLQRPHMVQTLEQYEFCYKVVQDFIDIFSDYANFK
PTPRC (CD45), sequence (P08575 26-1306, species assumed): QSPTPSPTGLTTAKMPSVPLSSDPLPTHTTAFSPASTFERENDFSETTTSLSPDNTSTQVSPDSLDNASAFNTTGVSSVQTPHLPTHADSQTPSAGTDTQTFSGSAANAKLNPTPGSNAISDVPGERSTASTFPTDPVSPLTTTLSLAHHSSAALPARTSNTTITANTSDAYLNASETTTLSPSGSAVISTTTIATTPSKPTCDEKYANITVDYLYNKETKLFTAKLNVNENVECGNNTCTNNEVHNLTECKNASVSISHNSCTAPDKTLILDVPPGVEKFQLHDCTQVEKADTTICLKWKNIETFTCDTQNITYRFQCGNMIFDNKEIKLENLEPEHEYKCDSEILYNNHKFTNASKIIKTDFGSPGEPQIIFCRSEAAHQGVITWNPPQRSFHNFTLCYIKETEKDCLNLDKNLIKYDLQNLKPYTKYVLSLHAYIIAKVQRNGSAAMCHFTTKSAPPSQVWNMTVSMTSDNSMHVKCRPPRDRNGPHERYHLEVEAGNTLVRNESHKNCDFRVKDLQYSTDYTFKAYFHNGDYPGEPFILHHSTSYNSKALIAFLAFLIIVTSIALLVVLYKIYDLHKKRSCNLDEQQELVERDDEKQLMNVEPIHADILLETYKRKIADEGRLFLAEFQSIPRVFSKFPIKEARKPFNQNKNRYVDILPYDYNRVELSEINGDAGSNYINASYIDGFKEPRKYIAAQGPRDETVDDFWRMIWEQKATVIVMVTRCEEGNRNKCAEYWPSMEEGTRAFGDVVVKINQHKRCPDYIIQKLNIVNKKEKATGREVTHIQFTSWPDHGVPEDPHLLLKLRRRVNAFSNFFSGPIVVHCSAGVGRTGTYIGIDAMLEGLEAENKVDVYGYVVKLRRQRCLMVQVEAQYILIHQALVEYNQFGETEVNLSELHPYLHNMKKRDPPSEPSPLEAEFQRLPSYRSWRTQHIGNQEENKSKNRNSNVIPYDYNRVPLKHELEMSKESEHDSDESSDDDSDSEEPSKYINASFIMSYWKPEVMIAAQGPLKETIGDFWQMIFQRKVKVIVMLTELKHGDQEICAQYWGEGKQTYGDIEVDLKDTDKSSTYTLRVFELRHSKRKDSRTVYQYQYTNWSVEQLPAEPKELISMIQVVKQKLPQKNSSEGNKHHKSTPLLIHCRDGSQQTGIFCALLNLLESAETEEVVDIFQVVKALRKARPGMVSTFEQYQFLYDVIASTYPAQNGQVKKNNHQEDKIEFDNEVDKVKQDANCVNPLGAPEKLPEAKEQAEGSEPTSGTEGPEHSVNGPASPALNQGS
DUSP22 (MKPX), sequence (Q9NRW4 whole entry, species assumed): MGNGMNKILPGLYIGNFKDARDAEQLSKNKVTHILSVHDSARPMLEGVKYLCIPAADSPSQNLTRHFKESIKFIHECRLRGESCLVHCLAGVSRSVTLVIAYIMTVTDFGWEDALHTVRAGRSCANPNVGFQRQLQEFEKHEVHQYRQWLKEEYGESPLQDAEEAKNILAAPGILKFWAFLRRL
PTPRS (PTP-sigma), sequence (Q13332 30-1948, species assumed): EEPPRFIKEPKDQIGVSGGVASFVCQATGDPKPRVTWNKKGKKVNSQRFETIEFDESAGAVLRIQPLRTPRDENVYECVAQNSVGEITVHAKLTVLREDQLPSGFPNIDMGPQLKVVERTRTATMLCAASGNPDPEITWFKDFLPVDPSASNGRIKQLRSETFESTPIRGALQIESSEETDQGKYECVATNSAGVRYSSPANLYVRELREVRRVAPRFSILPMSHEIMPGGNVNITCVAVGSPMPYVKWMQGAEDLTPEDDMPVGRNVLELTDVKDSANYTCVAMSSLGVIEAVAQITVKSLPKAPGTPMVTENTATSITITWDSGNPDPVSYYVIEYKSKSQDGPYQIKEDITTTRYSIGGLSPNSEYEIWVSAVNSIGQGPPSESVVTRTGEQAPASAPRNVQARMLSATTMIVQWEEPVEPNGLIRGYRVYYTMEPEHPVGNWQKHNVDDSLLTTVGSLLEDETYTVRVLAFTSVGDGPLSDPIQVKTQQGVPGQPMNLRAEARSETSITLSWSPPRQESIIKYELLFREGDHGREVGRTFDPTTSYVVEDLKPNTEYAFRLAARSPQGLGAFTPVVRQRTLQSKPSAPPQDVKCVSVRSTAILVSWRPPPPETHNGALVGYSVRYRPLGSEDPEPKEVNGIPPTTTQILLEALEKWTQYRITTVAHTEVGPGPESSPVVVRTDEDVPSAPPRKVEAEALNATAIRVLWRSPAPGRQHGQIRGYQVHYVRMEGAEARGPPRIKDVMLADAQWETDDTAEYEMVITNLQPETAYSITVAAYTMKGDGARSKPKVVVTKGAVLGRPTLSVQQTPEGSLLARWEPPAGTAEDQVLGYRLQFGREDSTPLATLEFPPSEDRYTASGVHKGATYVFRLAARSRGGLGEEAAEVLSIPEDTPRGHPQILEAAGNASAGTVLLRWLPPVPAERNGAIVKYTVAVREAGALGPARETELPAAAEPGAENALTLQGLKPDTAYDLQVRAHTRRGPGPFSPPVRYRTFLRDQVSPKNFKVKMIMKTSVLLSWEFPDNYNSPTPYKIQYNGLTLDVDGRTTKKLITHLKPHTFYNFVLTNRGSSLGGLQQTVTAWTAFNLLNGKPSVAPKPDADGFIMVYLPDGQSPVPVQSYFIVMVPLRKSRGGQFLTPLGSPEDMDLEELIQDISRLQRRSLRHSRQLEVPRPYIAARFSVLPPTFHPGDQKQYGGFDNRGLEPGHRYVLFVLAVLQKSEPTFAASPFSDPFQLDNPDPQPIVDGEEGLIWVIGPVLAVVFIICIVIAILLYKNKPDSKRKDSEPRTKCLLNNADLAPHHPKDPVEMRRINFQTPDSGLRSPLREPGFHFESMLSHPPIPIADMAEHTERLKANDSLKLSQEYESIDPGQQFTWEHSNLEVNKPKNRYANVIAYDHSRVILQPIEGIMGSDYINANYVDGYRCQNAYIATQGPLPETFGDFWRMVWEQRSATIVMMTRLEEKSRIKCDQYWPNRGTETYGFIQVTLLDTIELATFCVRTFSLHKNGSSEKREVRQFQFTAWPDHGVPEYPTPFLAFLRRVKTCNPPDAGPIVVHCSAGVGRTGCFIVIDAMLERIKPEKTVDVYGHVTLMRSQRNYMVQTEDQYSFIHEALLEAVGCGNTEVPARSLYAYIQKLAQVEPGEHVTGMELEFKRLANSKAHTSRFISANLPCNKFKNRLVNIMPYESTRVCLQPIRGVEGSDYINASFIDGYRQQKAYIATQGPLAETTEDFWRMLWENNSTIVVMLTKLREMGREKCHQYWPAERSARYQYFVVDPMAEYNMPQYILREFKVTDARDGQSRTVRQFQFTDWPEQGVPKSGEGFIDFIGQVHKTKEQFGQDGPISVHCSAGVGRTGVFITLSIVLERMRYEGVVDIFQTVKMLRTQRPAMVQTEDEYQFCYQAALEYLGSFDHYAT
PTPN2 (TC-PTP), sequence (P17706 whole entry, species assumed): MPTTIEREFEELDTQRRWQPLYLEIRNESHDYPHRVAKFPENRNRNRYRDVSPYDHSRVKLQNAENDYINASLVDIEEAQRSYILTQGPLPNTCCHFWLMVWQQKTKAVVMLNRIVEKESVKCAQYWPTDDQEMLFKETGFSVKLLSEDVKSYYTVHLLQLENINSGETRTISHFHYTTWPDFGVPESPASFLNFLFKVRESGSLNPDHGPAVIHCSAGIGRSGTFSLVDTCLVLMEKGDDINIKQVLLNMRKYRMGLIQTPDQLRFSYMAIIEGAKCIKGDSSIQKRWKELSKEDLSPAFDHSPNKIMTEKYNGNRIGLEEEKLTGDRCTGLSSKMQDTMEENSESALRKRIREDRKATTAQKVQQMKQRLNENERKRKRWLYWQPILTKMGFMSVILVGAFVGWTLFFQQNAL
mutant DUSP5, sequence (Q16690 whole entry S147P): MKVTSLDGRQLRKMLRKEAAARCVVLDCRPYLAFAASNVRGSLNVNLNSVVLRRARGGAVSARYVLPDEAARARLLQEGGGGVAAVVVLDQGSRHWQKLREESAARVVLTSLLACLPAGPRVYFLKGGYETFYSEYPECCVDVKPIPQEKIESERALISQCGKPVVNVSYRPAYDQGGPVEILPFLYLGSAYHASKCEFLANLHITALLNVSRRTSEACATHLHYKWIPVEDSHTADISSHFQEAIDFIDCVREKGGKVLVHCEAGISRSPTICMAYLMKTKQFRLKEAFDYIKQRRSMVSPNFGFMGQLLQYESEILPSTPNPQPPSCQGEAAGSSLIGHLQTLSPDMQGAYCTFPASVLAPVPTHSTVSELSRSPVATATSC

SMILES	% Change (activity change compared to control) (PTPRS (PTP-sigma)) [%]	% Change (activity change compared to control) (PTPN1 (PTP1B)) [%]	% Change (activity change compared to control) (PTPN13 (FAP-1)) [%]	% Change (activity change compared to control) (PTPN7 (LC-PTP)) [%]	% Change (activity change compared to control) (PTPRA (LRP)) [%]	% Change (activity change compared to control) (PTPN2 (TC-PTP)) [%]	% Change (activity change compared to control) (PTPRC (CD45)) [%]	% Change (activity change compared to control) (PTPRE) [%]	% Change (activity change compared to control) (DUSP22 (MKPX)) [%]	fold increase in IC50 activity compared to NTS (full-length DUSP5; DUSP5/pERK assay)	IC50 (full-length DUSP5; full-length DUSP5, pERK substrate) [µM]	IC50 (full-length DUSP5; full-length DUSP5, pERK/ERK2 substrate) [µM]	effect on mutant DUSP5 function (mutant DUSP5)	activity in DUSP5:pERK assay, in words (full-length DUSP5; in vitro, western blot)	effect on pERK levels [1]
O=S(=O)(O)c1cc(O)c2c(S(=O)(=O)O)cccc2c1 [RR527]	−6	−4	6	7	5	2	−12	−11	−13	1,000 fold	0.538 ± 0.271	33	–	–	–
O=S(=O)([O-])c1ccc2[nH]c3c(S(=O)(=O)[O-])cc(S(=O)(=O)[O-])cc3c2c1.[Na+].[Na+].[Na+] [RR505, Carbazole-1,3,6-trisulfonic acid, Trisodium Salt]	–	–	–	–	–	–	–	–	–	–	–	–	appears to restore mutant DUSP5's function	sub-micromolar range	do not show biologically useful levels of potency
